# Experiment: Comparative example: solubility of BMDBM in 1:1 (w/w) mixture of C12-15 alkyl benzoate and a polymeric or solid UV-filter
# Assay type: physicochemical
# Description: Where necessary the mixture was centrifuged in order to obtain a clear supernatant.
smiles,measurement,setting,value
"CCCCC(CC)COc1ccc(-c2nc(-c3ccc(OC)cc3)nc(-c3ccc(OCC(CC)CCCC)cc3O)n2)c(O)c1 (stereo not drawn) [BEMT, bis-ethylhexyloxyphenol methoxyphenyl triazine]",Solubility of BMDBM in C12-15 alkyl benzoate/UV-filter 1:1,"200 mg BMDBM with 1000 mg of 1:1 (w/w) mixture, supernatant by HPLC after 1 month at RT",3 wt.-%
same,Δ solubility of BMDBM related to cosmetic solvent,C12-15 alkyl benzoate/UV-filter 1:1,−4 wt.-%
same,Δ solubility of BMDBM,C12-15 alkyl benzoate/UV-filter 1:1 versus C12-15 alkyl benzoate,−11 wt.-%

# Source: patent publication US20120282201A1, “NOVEL COMPOUNDS” (priority 2009, published 2012)
